Results published in patent US9062061B2, “Compound having PARP inhibitory activity” (SANTEN PHARMACEUTICAL CO., LTD., priority 2011, dated 2015).
Structures can show the parent of a compound that is named as a salt.

Biological target: T1, human recombinant PARP1 (Homo sapiens, UniProt P09874)
T1 construct: purchased Trevigen 4677-096-K
Assay: PARP inhibitory activity measurement test (Universal Colorimetric PARP Assay kit, Trevigen)
Assay type: biochemical
Conditions: compound concentration: 10 μM, read-out: PARP1 inhibition rate (%)
Protocol: For evaluating PARP inhibitory activity of the present compound, inhibitory activity of each test compound against human recombinant PARP 1 was measured using Universal Colorimetric PARP Assay kit with Histone-Coated Strip Wells (Cat No.: 4677-096-K) available from Trevigen. The test was conducted according to the procedure in the instruction attached to this kit. The concrete operation will be described below.
After dissolving the test compound in dimethyl sulfoxide, the solution was diluted with a PARP buffer attached to the kit to prepare a 50 μM test compound solution.
In each well of a histone-coated 96-well plate, 10 μL of the test compound solution (50 μM), 15 μL of human recombinant PARP1 (33.3 Unit/mL) and 25 μL of PARP cocktail (containing activated DNA and biotinated NAD) were added, and incubated at room temperature for 1 hour (final reaction amount: 50 μL). Each well was washed twice with 200 μL of 0.1% Triton-X-containing Dulbecco's phosphate buffer, and further washed twice with 200 μL of Dulbecco's phosphate buffer, and then 50 μL of Strep-HRP was added, followed by incubation at room temperature for 1 hour. Each well was washed twice with 200 μL of 0.1% Triton-X-containing Dulbecco's phosphate buffer, and further washed twice with 200 μL of Dulbecco's phosphate buffer, and then 50 μL of TACS-Sapphire coloriometric substrate was added, followed by incubation at room temperature for 15 minutes. After stopping the reaction by adding 50 μL of 0.2 M HCl, absorbance at 450 nm (Abs 450) was measured by a microplate reader. The number of examples in each group was 1 to 2.
Using a well into which dimethyl sulfoxide and a PARP buffer were added in place of the test compound solution and human recombinant PARP1, the above operation was conducted as a negative control.
Using a well into which a PARP buffer containing dimethyl sulfoxide was added in place of the test compound solution, the above operation was conducted as a positive control.
PARP1 inhibition rate (%) was calculated according to the following Formula 1. PARP1 inhibition rate(%)=(AbsB−AbsX)/(AbsB−AbsA)×100 [Formula 1]
AbsA: absorbance of negative control (Abs 450)
AbsB: absorbance of positive control (Abs 450)
AbsX: absorbance of test compound-treated group (Abs 450)

T1 sequence (P09874 whole entry): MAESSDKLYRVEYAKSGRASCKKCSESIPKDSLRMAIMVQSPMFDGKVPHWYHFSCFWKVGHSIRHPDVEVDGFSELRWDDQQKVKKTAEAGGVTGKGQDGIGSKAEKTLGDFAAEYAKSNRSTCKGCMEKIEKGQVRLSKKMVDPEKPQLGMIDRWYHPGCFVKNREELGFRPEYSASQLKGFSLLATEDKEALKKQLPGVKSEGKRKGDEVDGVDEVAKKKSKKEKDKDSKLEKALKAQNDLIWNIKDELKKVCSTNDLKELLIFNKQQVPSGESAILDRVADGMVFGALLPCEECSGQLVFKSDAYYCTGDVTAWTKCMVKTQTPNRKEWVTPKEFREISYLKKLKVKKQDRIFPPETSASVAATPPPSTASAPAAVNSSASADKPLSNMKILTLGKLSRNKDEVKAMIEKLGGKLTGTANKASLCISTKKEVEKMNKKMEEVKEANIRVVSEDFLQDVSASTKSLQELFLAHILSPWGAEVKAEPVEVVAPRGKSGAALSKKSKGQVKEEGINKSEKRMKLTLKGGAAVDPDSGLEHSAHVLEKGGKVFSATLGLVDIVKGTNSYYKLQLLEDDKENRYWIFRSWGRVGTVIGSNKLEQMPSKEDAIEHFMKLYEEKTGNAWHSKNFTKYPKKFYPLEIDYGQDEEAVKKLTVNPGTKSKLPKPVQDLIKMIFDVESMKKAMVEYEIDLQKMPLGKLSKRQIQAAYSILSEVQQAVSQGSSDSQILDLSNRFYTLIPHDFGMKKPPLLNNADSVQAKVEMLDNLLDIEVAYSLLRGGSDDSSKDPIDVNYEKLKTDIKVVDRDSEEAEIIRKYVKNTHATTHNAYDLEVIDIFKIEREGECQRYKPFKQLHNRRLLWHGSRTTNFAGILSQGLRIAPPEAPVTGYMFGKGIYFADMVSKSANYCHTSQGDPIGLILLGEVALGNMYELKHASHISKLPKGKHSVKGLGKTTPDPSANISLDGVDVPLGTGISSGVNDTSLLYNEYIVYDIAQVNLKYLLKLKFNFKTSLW

| inhibition at 10 µM [%] | SMILES |
| --- | --- |
| 98 | O=c1[nH]c2cc(CN3CCN(c4cccc(F)c4)CC3)cn2c2ccccc12 [Compound 2-15, 2-[4-(3-Fluorophenyl)piperazin-1-ylmethyl]pyrrolo[1,2-a]quinazolin-5(4H)-one] |
| 95 | O=c1[nH]c2cc(CN3CCN(c4cccnc4)CC3)cn2c2ccccc12 [Compound 2-18, 2-[4-(Pyridine-3-yl)piperazin-1-ylmethyl]pyrrolo[1,2-a]quinazolin-5(4H)-one] |
| 93 | CN(CCCc1ccccc1)Cc1cc2[nH]c(=O)c3ccccc3n2c1 [Compound 2-19, 2-[N-Methyl-N-(3-phenylpropyl)aminomethyl]pyrrolo[1,2-a]quinazolin-5(4H)-one] |
| 90 | O=c1[nH]c2cc(CN3CCN(c4ccc(Br)cc4)CC3)cn2c2ccccc12 [Compound 2-20, 2-[4-(4-Bromophenyl)piperazin-1-ylmethyl]pyrrolo[1,2-a]quinazolin-5(4H)-one] |
| 65 | O=c1[nH]c2cc(CN3CCc4ccccc4C3)cn2c2ccccc12 [Compound 2-21, 2-(1,2,3,4-Tetrahydroisoquinolin-2(1H)-ylmethyl)pyrrolo[1,2-a]quinazolin-5(4H)-one] |
| 97 | CN(C)C1CCN(Cc2cc3[nH]c(=O)c4ccccc4n3c2)CC1 [Compound 2-22, 2-(4-Dimethylaminopiperidin-1-ylmethyl)pyrrolo[1,2-a]quinazolin-5(4H)-one] |
| 100 | O=c1[nH]c2cc(CN3CCN(c4ccncc4)CC3)cn2c2ccccc12 [Compound 2-23, 2-[4-(Pyridin-4-yl)piperazin-1-ylmethyl]pyrrolo[1,2-a]quinazolin-5(4H)-one] |
| 99 | CC1CN(c2ccc(F)cc2)CCN1Cc1cc2[nH]c(=O)c3ccccc3n2c1 (stereo not shown) [Compound 2-24, 2-[4-(4-Fluorophenyl)-2-methylpiperazin-1-ylmethyl]pyrrolo[1,2-a]quinazolin-5(4H)-one] |
| 100 | COc1ccccc1N1CCN(Cc2cc3[nH]c(=O)c4ccccc4n3c2)CC1 [Compound 2-25, 2-[4-(2-Methoxyphenyl)piperazin-1-ylmethyl]pyrrolo[1,2-a]quinazolin-5(4H)-one] |
| 78 | COc1cccc(N2CCN(Cc3cc4[nH]c(=O)c5ccccc5n4c3)CC2)c1 [Compound 2-26, 2-[4-(3-Methoxyphenyl)piperazin-1-ylmethyl]pyrrolo[1,2-a]quinazolin-5(4H)-one] |
| 99 | O=c1[nH]c2cc(CN3CCN(C4CCCCC4)CC3)cn2c2ccccc12 [Compound 2-27, 2-(4-Cyclohexylpiperazin-1-ylmethyl)pyrrolo[1,2-a]quinazolin-5(4H)-one] |
| 99 | O=c1[nH]c2cc(CN3CCN(CC4CC4)CC3)cn2c2ccccc12 [Compound 2-28, 2-(4-Cyclopropylmethylpiperazin-1-ylmethyl)pyrrolo[1,2-a]quinazolin-5(4H)-one] |
| 40 | O=c1[nH]c2cc(CN3CCN(c4ccc(C(F)(F)F)cc4)CC3)cn2c2ccccc12 [Compound 2-29, 2-[4-(4-Trifluoromethylphenyl)piperazin-1-ylmethyl]pyrrolo[1,2-a]quinazolin-5(4H)-one] |
| 66 | O=c1[nH]c2cc(CN3CCCC(c4ccccc4)C3)cn2c2ccccc12 (stereo not shown) [Compound 2-31, 2-(3-Phenylpiperidin-1-ylmethyl)pyrrolo[1,2-a]quinazolin-5(4H)-one] |
| 97 | Cc1cccc(N2CCN(Cc3cc4[nH]c(=O)c5ccccc5n4c3)CC2)c1 [Compound 2-32, 2-[4-(3-Methylphenyl)piperazin-1-ylmethyl]pyrrolo[1,2-a]quinazolin-5(4H)-one] |
| 96 | O=c1[nH]c2cc(CN3CCC(N4CCCCC4)CC3)cn2c2ccccc12 [Compound 2-33, 2-[4-(Piperidin-1-yl)piperidin-1-ylmethyl]pyrrolo[1,2-a]quinazolin-5(4H)-one] |
| 96 | O=c1[nH]c2cc(CN3CCCC3)cn2c2ccccc12 [Compound 2-34, 2-(Pyrrolidin-1-ylmethyl)pyrrolo[1,2-a]quinazolin-5(4H)-one] |
| 82 | O=c1[nH]c2cc(CN3CCN(c4nccc5occc45)CC3)cn2c2ccccc12 [Compound 2-36, 2-[4-(Furo[3,2-c]pyridin-4-yl)piperazin-1-ylmethyl]pyrrolo[1,2-a]quinazolin-5(4H)-one] |
| 98 | CC(C)Oc1ccc(N2CCN(Cc3cc4[nH]c(=O)c5ccccc5n4c3)CC2)cc1 [Compound 2-38, 2-[4-(4-Isopropoxyphenyl)piperazin-1-ylmethyl]pyrrolo[1,2-a]quinazolin-5(4H)-one] |
| 100 | O=c1[nH]c2cc(CN3CCN(c4ccc(F)cc4)CC3)cn2c2ccsc12 [Compound 2-41, 7-[4-(4-Fluorophenyl)piperazin-1-ylmethyl]pyrrolo[1,2-a]thieno[2,3-e]pyrimidin-4(5H)-one] |
| 100 | O=c1[nH]c2cc(CN3CCN(c4ccc(Cl)cc4)CC3)cn2c2ccsc12 [Compound 2-42, 7-[4-(4-Chlorophenyl)piperazin-1-ylmethyl]pyrrolo[1,2-a]thieno[2,3-e]pyrimidin-4(5H)-one] |
| 91 | O=c1[nH]c2cc(CN3CCCC3)cn2c2ccsc12 [Compound 2-43, 7-(Pyrrolidin-1-ylmethyl)pyrrolo[1,2-a]thieno[2,3-e]pyrimidin-4(5H)-one] |
| 85 | CN(C)CCOc1cc(F)ccc1N1CCN(Cc2cc3[nH]c(=O)c4ccccc4n3c2)CC1 [Compound 2-46, 2-[4-[2-(2-Dimethylaminoethoxy)-4-fluorophenyl]piperazin-1-ylmethyl]pyrrolo[1,2-a]quinazolin-5(4H)-one] |
| 99 | O=c1[nH]c2cc(CN3CCC(N4CCOCC4)CC3)cn2c2ccccc12 [Compound 2-47, 2-[4-(Morpholin-4-yl)piperidin-1-ylmethyl]pyrrolo[1,2-a]quinazolin-5(4H)-one] |
| 100 | O=c1[nH]c2cc(CN3CCN(c4ccc(O)cc4)CC3)cn2c2ccccc12 [Compound 3-1, 2-[4-(4-Hydroxyphenyl)piperazin-1-ylmethyl]pyrrolo[1,2-a]quinazolin-5(4H)-one] |
| 99 | O=C(c1cc2[nH]c(=O)c3ccccc3n2c1)N1CCCNCC1 [Compound 5-1, 2-(Homopiperazine-1-carbonyl)pyrrolo[1,2-a]quinazolin-5(4H)-one hydrochloride] |
| 85 | O=C(c1cc2[nH]c(=O)c3ccccc3n2c1)N1CCNCC1 [Compound 5-2, 2-(piperazine-1-carbonyl)pyrrolo[1,2-a]quinazolin-5(4H)-one] |
| 90 | O=C(c1cc2[nH]c(=O)c3ccccc3n2c1)N1CCCN(C(=O)C2CC2)CC1 [Compound 6-1, 2-[4-Cyclopropylcarbonylhomopiperazine-1-carbonyl]pyrrolo[1,2-a]quinazolin-5(4H)-one] |
